Measured values taken from PMC5982655, “Interaction of the New Monofunctional Anticancer Agent Phenanthriplatin With Transporters for Organic Cations” (Frontiers in Chemistry, 2018).
“Also recorded” adds a separate entry of the source.

What was measured:
hMATE2K = molecular target: T1, hMATE2K (Homo sapiens, UniProt Q86VL8); assay: Inhibition of ASP+ uptake in HEK 293 cells expressing hMATE2K; format: cell-based; details: HEK 293 hMATE2K, 10 μM ASP+
T1 construct: expressed in transfected cells
Method: The interaction of phenanthriplatin with transporters for organic cations (OCT1-3, MATE1, and MATE2K) was investigated by measuring its effects on the uptake of the fluorescent organic cation 4-(4-dimethylamino)styryl-N-methylpyridinium (ASP^+). Microfluorometric measurements of ASP^+ uptake were performed with a fluorescence plate reader (Infinity 200, Tecan, Crailsheim, Germany; excitation at 465 nm, emission at 590 nm) as described previously for cultured HEK 293 cells (Wilde et al., [2009]). Before measurements, the culture medium in the wells of the 96 well microtiter plate containing HEK 293 cells was replaced by a HCO3- -free Ringer-like solution containing (in mM) NaCl 145, K2HPO4 1.6, KH2PO4 0.4, D-glucose 5, MgCl2 1, calcium gluconate 1.3, and pH adjusted to 7.4. Fluorescence was measured dynamically at 37°C in each well before and after ASP^+ addition to HCO3- -free Ringer-like solution, alone or together with increasing phenanthriplatin concentrations, and plotted versus time. ASP^+ (final concentration 1 or 10 μM for experiments with OCTs or MATEs, respectively) was added after the third sampling interval. Emission from the complete area of the well bottom was analyzed four times and averaged for each well. […] Background fluorescence was measured for each plate in wells with identical solutions containing no cells and subtracted from each well containing cells. […]

HEK293 hMATE2K cells = assay: MTT cell viability, HEK293 hMATE2K cells; format: cell-based, human; details: 100 μM phenanthriplatin
Method: A modified 3-(4,5-dimethylthiazol-2-yl)-2,5-diphenyltetrazolium bromide (MTT) assay (Mosmann, [1983]) was used to test the chemosensitivity of cells to phenanthriplatin and, in some experiments, to cisplatin by determining the glycolysis rate via the reduction of the yellow tetrazolium salt MTT to a purple formazan dye, as previously described (Wehe et al., [2014]). Briefly, after growing for 24 h in the incubator, cells expressing or not hOCT2, hMATE1, hMATE2 or Ctr1 were treated for 10 min with platinum derivatives. Control cells were incubated with drug-free complete cell culture medium. Afterwards, the medium was carefully removed and replaced by 200 μL of fresh complete cell culture medium. After incubation for another 24 h, 10 μL of MTT solution containing 5 mg/mL of the dye were added to each well, and the cells were again incubated for 3 h. The medium was then removed and 100 μL of lysis buffer containing 10% (w/v) sodium dodecyl sulfate and 40% (v/v) dimethylformamide was added to each well. The plates were shaken for 10 min to destroy the cell structure and dissolve the blue formazan dye (Furchert et al., [2007]; Wehe et al., [2014]). Finally, the absorbance was measured at 590 nm using an automated microtiter plate reader (Infinite M200; Tecan, Männedorf, Switzerland). The percentage of viable cells in the untreated controls was compared to that for the various treatments. […]

Ctr1^−/− MEFs = assay: MTT cell viability, Ctr1-/- MEFs; format: cell-based, mouse
Method: (§1) A modified 3-(4,5-dimethylthiazol-2-yl)-2,5-diphenyltetrazolium bromide (MTT) assay (Mosmann, [1983]) was used to test the chemosensitivity of cells to phenanthriplatin and, in some experiments, to cisplatin by determining the glycolysis rate via the reduction of the yellow tetrazolium salt MTT to a purple formazan dye, as previously described (Wehe et al., [2014]). Briefly, after growing for 24 h in the incubator, cells expressing or not hOCT2, hMATE1, hMATE2 or Ctr1 were treated for 10 min with platinum derivatives. Control cells were incubated with drug-free complete cell culture medium. Afterwards, the medium was carefully removed and replaced by 200 μL of fresh complete cell culture medium. After incubation for another 24 h, 10 μL of MTT solution containing 5 mg/mL of the dye were added to each well, and the cells were again incubated for 3 h. The medium was then removed and 100 μL of lysis buffer containing 10% (w/v) sodium dodecyl sulfate and 40% (v/v) dimethylformamide was added to each well. The plates were shaken for 10 min to destroy the cell structure and dissolve the blue formazan dye (Furchert et al., [2007]; Wehe et al., [2014]). Finally, the absorbance was measured at 590 nm using an automated microtiter plate reader (Infinite M200; Tecan, Männedorf, Switzerland). The percentage of viable cells in the untreated controls was compared to that for the various treatments. Experiments carried out with DAOY and UW228 cells followed a similar protocol except that these cells were incubated for 24 h with phenanthriplatin.

UW228 cells = assay: MTT cell viability, UW228 medulloblastoma cells; format: cell-based
Method: as §1
(§2) Data are presented as mean values ± SEM, with (n) referring to the number of wells. IC50 values defined as the concentration of platinum agent required to inhibit uptake of ASP^+ by 50% and EC50 values used to assess cell viability were obtained by sigmoidal concentration-response curve fitting using GraphPad Prism, Version 5.3 (GraphPad Software, San Diego, USA). […] For multiple comparisons, ANOVA with Bonferroni post-test was used. A P-value < 0.05 was considered statistically significant.

hOCT1 = molecular target: T2, hOCT1 (Homo sapiens, UniProt O15245); assay: Inhibition of ASP+ uptake in HEK 293 cells expressing hOCT1; format: cell-based; details: HEK 293 hOCT1, 1 μM ASP+
T2 construct: expressed in transfected cells; gift of H. Koepsell
T2 sequence (O15245 1-554): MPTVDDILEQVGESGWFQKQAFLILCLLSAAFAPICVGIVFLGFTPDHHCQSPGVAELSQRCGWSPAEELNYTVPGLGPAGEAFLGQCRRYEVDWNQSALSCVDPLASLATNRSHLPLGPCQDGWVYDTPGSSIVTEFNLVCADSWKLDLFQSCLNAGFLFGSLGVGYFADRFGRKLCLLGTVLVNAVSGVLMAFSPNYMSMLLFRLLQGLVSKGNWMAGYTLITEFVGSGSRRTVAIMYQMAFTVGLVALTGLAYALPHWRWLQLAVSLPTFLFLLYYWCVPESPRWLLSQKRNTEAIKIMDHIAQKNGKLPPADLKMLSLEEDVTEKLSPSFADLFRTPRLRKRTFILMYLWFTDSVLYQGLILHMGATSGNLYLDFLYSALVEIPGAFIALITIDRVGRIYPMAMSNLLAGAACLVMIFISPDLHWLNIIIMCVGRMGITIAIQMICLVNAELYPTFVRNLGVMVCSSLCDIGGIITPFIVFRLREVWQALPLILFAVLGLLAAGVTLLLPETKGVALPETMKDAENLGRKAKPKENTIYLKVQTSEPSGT
Method: The interaction of phenanthriplatin with transporters for organic cations (OCT1-3, MATE1, and MATE2K) was investigated by measuring its effects on the uptake of the fluorescent organic cation 4-(4-dimethylamino)styryl-N-methylpyridinium (ASP^+). Microfluorometric measurements of ASP^+ uptake were performed with a fluorescence plate reader (Infinity 200, Tecan, Crailsheim, Germany; excitation at 465 nm, emission at 590 nm) as described previously for cultured HEK 293 cells (Wilde et al., [2009]). Before measurements, the culture medium in the wells of the 96 well microtiter plate containing HEK 293 cells was replaced by a HCO3- -free Ringer-like solution containing (in mM) NaCl 145, K2HPO4 1.6, KH2PO4 0.4, D-glucose 5, MgCl2 1, calcium gluconate 1.3, and pH adjusted to 7.4. Fluorescence was measured dynamically at 37°C in each well before and after ASP^+ addition to HCO3- -free Ringer-like solution, alone or together with increasing phenanthriplatin concentrations, and plotted versus time. ASP^+ (final concentration 1 or 10 μM for experiments with OCTs or MATEs, respectively) was added after the third sampling interval. Emission from the complete area of the well bottom was analyzed four times and averaged for each well. […] Background fluorescence was measured for each plate in wells with identical solutions containing no cells and subtracted from each well containing cells. Experiments were performed with cells from one passage of the same day with controls and test replicates in the same plate.
as §2

DAOY cells = assay: MTT cell viability, DAOY medulloblastoma cells; format: cell-based
Method: as §1, §2

T1 sequence (Q86VL8 1-566 isoform Q86VL8-3): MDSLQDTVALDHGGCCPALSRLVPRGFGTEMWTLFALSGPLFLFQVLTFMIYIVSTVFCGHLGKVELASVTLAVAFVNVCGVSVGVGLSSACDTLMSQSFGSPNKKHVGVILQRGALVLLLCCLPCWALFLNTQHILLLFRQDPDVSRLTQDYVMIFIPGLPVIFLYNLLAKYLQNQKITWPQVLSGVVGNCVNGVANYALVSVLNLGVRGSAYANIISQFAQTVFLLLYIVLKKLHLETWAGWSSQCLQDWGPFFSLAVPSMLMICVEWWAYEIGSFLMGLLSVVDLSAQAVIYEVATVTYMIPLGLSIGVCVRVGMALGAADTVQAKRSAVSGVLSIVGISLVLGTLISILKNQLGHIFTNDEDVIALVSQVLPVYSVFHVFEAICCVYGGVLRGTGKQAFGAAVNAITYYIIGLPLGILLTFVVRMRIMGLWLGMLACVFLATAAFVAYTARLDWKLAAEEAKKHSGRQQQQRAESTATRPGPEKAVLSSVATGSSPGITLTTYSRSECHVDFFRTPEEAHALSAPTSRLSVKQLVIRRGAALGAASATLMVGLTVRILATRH

IC50 (hMATE2K): 57 µM | logIC50 (logEC50) ± SEM for inhibition of ASP+ uptake (hMATE2K): −4.24 ± 0.07 | EC50 (UW228 cells; UW228, 24 h incubation, MTT): 2.8 µM | IC50 (hOCT1): 19 µM | logIC50 (logEC50) ± SEM for inhibition of ASP+ uptake (hOCT1): −4.72 ± 0.21 | EC50 (DAOY cells; 24 h incubation, MTT): 0.9 µM
SMILES: N.N.[Cl][Pt+].c1ccc2c(c1)cnc1ccccc12 [phenanthriplatin, cis-[Pt(NH3)2Cl(phenanthridine)]^+]
Cell viability (MTT) (HEK293 hMATE2K cells): induces significant cell toxicity | Cell viability (MTT) (Ctr1^−/− MEFs; 1 mM, 10 min): toxic; also recorded: still present in Ctr1^−/− MEFs even though at lower level than in Ctr1^+/+ MEFs | Cell viability (MTT) (Ctr1^−/− MEFs; lower concentrations (<1 mM)): did not change the cell viability | Protection from phenanthriplatin toxicity by cimetidine (cell viability, MTT) (UW228 cells; UW228, 24 h, 3 μM phenanthriplatin + 10-fold higher cimetidine): not in UW228 cells | logEC50 ± SEM for viability (UW228 cells; UW228, 24 h incubation, MTT): −5.55 ± 0.03 | Protection from phenanthriplatin toxicity by cimetidine (cell viability, MTT) (DAOY cells; 24 h, 1 μM phenanthriplatin + 10-fold higher cimetidine): efficaciously protected against phenanthriplatin toxicity by cimetidine; also recorded: significantly decreased the toxicity of this compound in DAOY | logEC50 ± SEM for viability (DAOY cells; 24 h incubation, MTT): −6.05 ± 0.02
